Source: patent publication US4444775A, “Substituted imidazo[1,5-A]pyridines” (Ciba-Geigy Corporation, priority 1982, dated 1984)
pIC50: −log10 of the molar value.

Legend:
[1] = biological target: T1, thromboxane synthetase from lysed human platelets (Homo sapiens, UniProt P24557); assay: in vitro inhibition of the thromboxane synthetase enzyme (TxB2/PGF2α+β ratio from 14C-arachidonic acid); format: biochemical; details: human platelet microsomal enzyme, 30 minutes incubation
T1 construct: crude microsomal preparation of thromboxane synthetase from lysed human platelets; from tissue; host or cells: human platelets, lysed; crude microsomal preparation
T1 sequence (P24557 1-533): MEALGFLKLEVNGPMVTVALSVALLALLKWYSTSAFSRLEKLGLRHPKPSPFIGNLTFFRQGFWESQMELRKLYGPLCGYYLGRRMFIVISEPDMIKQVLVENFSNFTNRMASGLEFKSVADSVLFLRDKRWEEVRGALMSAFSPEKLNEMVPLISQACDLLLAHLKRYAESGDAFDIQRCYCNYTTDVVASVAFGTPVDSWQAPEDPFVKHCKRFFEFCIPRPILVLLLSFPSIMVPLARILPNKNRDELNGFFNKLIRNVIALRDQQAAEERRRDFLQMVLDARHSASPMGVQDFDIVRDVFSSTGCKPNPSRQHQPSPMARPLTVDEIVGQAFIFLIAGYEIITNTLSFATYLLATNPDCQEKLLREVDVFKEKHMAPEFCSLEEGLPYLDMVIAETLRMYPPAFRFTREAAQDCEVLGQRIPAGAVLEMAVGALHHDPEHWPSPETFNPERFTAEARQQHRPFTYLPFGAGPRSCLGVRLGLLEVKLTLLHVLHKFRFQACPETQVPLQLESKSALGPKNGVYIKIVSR
Description: Res. Comm. 74, 1432 (1977); the testing procedure is as follows:
The test compound (dissolved in buffer, or if necessary, in a small amount of ethanol) is added to the incubation medium. […] The radioactive products and excess substrate are extracted into ethyl acetate; the extract is evaporated to dryness; the residue is dissolved in acetone, spotted on thin-layer plates and chromatographed in the solvent system toluene: acetone: glacial acetic acid (100 volumes: 100 volumes: 3 volumes).

[2] = biological target: T2, prostacyclin (PGI2) synthetase (microsomal fraction of bovine aorta) (Bos taurus, UniProt Q29626); assay: in-vitro effect on prostacyclin (PGI2) synthetase (6-keto-PGF1α/PGE2 ratio); format: biochemical; details: read-out: IC50 for inhibition of prostacyclin synthetase
T2 construct: crude PGI2 synthetase in the form of a microsomal fraction of bovine aorta; from tissue; host or cells: bovine aorta, microsomal fraction
T2 sequence (Q29626 1-500): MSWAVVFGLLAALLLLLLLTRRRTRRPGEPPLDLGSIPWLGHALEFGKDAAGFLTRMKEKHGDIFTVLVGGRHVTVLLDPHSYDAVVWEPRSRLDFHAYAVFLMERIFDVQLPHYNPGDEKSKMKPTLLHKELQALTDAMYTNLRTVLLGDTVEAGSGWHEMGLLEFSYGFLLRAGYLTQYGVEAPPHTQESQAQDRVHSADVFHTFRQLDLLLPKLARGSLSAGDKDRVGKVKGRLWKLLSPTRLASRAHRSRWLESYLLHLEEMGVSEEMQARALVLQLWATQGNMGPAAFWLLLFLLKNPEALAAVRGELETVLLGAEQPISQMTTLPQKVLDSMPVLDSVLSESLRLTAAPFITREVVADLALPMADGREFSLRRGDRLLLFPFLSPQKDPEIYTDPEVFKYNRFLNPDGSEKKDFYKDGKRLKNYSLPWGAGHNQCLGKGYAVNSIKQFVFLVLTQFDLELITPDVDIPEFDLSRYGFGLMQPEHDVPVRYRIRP
Description: The in-vitro effect on prostacyclin (PGI2) synthetase is measured analogous to the method of Sun et al., Prostaglandins 14, 1055 (1977);
The testing procedure is as follows:
^14 C-Arachidonic acid is incubated with an enzyme mixture consisting of solubilized and partially purified prostaglandin cyclo-oxygenase from sheep seminal vesicles and crude PGI2 synthetase in the form of a microsomal fraction of bovine aorta.
Test compound (dissolved in buffer, or if necessary, in a small amount of ethanol) is placed in the incubation medium. The reaction mixture is incubated in 100 mM Tris HCl (pH 7.5) for 30 minutes at 37° C., acidified to pH 3 and extracted into ethyl acetate. The extract is evaporated to dryness; the residue is dissolved in acetone, spotted on thin-layer plates and chromatographed in a solvent system described by Sun et al. The radioactive zones are located with a scanner; those corresponding to 6-keto-PGF1 α (a stable end product of prostacyclin biotrasformation) and PGE2 are transferred to liquid scintillation vials and counted. The ratio of counts for 6-keto-PGF1 α/PGE2 is calculated for each concentration of test compound used. IC50 values for inhibition are determined graphically as the concentration of test compound at which the ratio of 6-keto-PGF1 α/PGE2 is reduced to 50% of the control value.

bleeding time = assay: prolongation of bleeding time in the rat; format: in vivo; details: rats, dose of about 1 mg/kg i.p. or lower
Text: For example, in thromboembolism, specific inhibition of the enzyme thromboxane synthetase reduces arachidonic acid induced platelet aggregation involved in clot formation. Experimentally, prolongation of bleeding time in the rat is indicative of a beneficial antithrombotic effect.

[3] = tested on: plasma thromboxane B2 and 6-keto-PGF1α; assay: reduction of plasma levels of thromboxane in vivo after arachidonic acid challenge; details: guinea pig
Description: The reduction of plasma levels of thromboxane is determined in vivo on administration of the test compound to guinea pigs in the following manner:
Guinea pigs are dosed with vehicle or test drug and injected intraperitoneally with arachidonic acid (40 mg/kg) 2 hours later. Blood is collected for analysis 1 hour after the arachidonic acid challenge. A single aliquot of each plasma sample is assayed for thromboxane B2 and another aliquot for 6-keto-PGF1 α, the stable metabolites of thromboxane A2 and prostacyclin (PGI2) respectively.

[4] = biological target: T3, prostaglandin cyclooxygenase (sheep seminal vesicle microsomes) (Ovis aries, UniProt P05979); assay: in-vitro effect on prostaglandin cyclooxygenase (conversion of 14C-arachidonic acid to PGE2); format: biochemical; details: read-out: IC50 for inhibition of cyclooxygenase
T3 construct: Lyophilized sheep seminal vesicle microsomes are utilized as the prostaglandin-synthesizing enzyme preparation; from tissue; host or cells: sheep seminal vesicle microsomes, lyophilized
T3 sequence (P05979 25-600): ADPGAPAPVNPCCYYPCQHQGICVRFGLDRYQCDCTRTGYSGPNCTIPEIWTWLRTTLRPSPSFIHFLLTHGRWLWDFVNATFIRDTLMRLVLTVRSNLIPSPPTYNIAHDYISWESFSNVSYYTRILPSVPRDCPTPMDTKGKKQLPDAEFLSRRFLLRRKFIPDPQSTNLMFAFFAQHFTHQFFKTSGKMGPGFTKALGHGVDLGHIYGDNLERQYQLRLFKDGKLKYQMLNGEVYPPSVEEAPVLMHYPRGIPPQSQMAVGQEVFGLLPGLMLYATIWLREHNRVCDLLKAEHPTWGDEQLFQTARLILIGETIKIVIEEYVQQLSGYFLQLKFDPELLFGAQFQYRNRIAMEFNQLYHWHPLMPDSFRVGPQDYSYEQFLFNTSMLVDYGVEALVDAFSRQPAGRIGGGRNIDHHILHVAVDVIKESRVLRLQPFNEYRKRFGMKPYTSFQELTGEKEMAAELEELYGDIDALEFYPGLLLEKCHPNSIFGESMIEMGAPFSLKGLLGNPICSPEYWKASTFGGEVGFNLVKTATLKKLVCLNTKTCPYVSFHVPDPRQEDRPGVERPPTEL
Description: The in-vitro effect on prostaglandin cyclooxygenase is measured by a modification of the method of Takeguchi et al described in Biochemistry 10, 2372 (1971); the testing procedure is as follows: Lyophilized sheep seminal vesicle microsomes are utilized as the prostaglandin-synthesizing enzyme preparation. The conversion of ^14 C-arachidonic acid to PGE2 is measured. Test compounds (dissolved in buffer, or if necessary, in small amount of ethanol) are added to the incubation mixture. The prostaglandins are extracted and separated by thin-layer chromatography; the plates are scanned, the radioactive zones corresponding to PGE2 are transferred to liquid scintillation vials and counted for radioactivity. IC50 values for inhibition are determined graphically as the concentration of test compound causing a 50% reduction in the amount of PGE2 synthesized.

[5] = tested on: arachidonic acid induced pulmonary obstruction; assay: protection against sudden death due to arachidonic acid induced pulmonary obstruction; format: in vivo; details: mice, orally, 100 mg/kg

## O=C(O)CCCCCc1cccc2cncn12 [Example 2, 5-(5-carboxypentyl)-imidazo[1,5-a]pyridine]
[1]
  pIC50: ~8.52
[2]
  pIC50: < 4.00
Bleeding time
  bleeding time: prolongs bleeding time
[3]; oral dose 0.25 mg/kg or higher doses
  decrease with respect to prostacyclin (plasma 6-keto-PGF1α): no significant decrease
[3]; oral dose as low as 0.25 mg/kg
  reduction of plasma levels of thromboxane B2: over 50%
[4]
  pIC50: < 4.00
[5]
  protection against sudden death: protects against sudden death
